Data reported in patent EP4806891A1 (Kangbaida (Sichuan) Biotechnology Co., Ltd., priority 2023, dated 2025).

Columns and labels:
HEK-Blue-hTLR8 cells = biological target: T1, HEK-Blue-hTLR8 cells (Homo sapiens, UniProt Q9NR97); experiment: HEK-Blue-hTLR8 cell inhibition assay; assay type: cell-based; settings: R848 3 µM, 16 h, OD 620 nm, read-out: TLR8 IC50
T1 construct: expressed in transfected cells; host or cells: HEK-Blue-hTLR8 cells (HEK293-derived reporter line)
T1 sequence (Q9NR97 27-1041): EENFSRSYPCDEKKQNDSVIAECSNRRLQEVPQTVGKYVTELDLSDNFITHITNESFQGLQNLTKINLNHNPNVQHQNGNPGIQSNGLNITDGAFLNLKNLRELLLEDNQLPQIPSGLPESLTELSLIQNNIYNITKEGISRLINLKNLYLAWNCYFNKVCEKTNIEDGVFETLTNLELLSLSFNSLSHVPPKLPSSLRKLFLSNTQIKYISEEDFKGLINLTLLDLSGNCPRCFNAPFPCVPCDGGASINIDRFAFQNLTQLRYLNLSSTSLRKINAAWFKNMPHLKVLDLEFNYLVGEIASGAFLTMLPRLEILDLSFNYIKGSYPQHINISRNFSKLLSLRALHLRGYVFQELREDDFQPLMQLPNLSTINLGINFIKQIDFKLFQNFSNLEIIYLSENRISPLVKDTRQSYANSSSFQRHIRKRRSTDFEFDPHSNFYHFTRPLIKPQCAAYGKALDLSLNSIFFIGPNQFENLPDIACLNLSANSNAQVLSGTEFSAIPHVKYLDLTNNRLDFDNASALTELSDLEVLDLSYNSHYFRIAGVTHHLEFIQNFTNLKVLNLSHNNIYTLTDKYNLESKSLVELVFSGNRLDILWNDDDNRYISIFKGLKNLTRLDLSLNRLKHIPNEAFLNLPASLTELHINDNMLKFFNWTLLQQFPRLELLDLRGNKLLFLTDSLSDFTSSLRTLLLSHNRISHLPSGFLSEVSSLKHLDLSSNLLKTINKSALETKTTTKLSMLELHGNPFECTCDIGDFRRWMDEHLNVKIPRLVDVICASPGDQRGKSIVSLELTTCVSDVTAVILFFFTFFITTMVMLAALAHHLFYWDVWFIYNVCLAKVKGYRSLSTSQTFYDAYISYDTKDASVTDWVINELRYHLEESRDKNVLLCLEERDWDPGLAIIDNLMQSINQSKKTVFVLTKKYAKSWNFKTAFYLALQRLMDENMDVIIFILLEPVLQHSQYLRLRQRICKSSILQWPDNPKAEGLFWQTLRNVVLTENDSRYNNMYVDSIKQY
Procedure: (§1) HEK-Blue-hTLR7/8/9 cell inhibition assay
(§2) 1. HEK-Blue-hTLR7/8 cells (1 × 10^4 cells/well) and HEK-Blue-hTLR9 cells (1.5 × 10^4 cells/well) were seeded in a 384-well cell culture plate, with a volume of 30 µL per well. The plate was incubated at 37°C in a 5% CO2 incubator for 4 h. 2. The compound was prepared with DMSO and diluted in DMEM medium to 10 concentrations (1:3 dilution), with final concentrations of 10000, 3333.3, 1111.1, 370.4, 123.5, 41.2, 13.7, 4.6, 1.5, and 0.5 nM; R848 was prepared with DMSO and diluted in DMEM medium, with final concentrations of 0.8 µM (HEK-Blue-hTLR7) and 3 µM (HEK-Blue-hTLR8); ODN2006 was prepared with endotoxin-free water and diluted in DMEM medium, with a final concentration of 1 µM. 3. Cells treated with DMSO were used as the blank control group, while cells treated solely with Resiquimod (R848) were used as the positive control group for HEK-Blue-hTLR7/8, and cells treated solely with ODN2006 were used as the positive control group for HEK-Blue-hTLR9. Cells treated with the test compound together with R848 or ODN2006 were used as the test group. Two parallel wells were set for each group and were placed at 37°C in a 5% CO2 incubator for incubation. 4. After being incubated for 4 h, the 384-well plate of HEK-Blue-hTLR7/8 was taken out from the incubator, and R848 alone or both R848 and the diluted compound were separately added into each well. The plate was placed at 37°C in a 5% CO2 incubator for incubation for 16 h; the 384-well plate of HEK-Blue-hTLR9 was taken out from the incubator, and ODN2006 alone or both ODN2006 and the diluted compound were added separately to each well. The plate was incubated at 37°C in a 5% CO2 incubator for 16 h. 5. After being incubated for 16 h, the 384-well plate was removed from the incubator and centrifuged at 1000 rpm for 1 minute. The optical density value of each well at 620 nm was measured using a multifunctional microplate reader. 6. The cell inhibition rate was calculated as (1-(OD620 test group-OD620 blank group)/(OD620 positive group-OD620 blank group))×100%, and the half maximal inhibitory concentration (IC50) was calculated through curve fitting. Table 1: Activity of the compounds of the present disclosure in HEK-Blue-hTLR7/8/9 cellular assays

HEK-Blue-hTLR7 cells = biological target: T2, HEK-Blue-hTLR7 cells (Homo sapiens, UniProt Q9NYK1); experiment: HEK-Blue-hTLR7 cell inhibition assay; assay type: cell-based; settings: R848 0.8 µM, 16 h, OD 620 nm, read-out: TLR7 IC50
T2 construct: expressed in transfected cells; host or cells: HEK-Blue-hTLR7 cells (HEK293-derived reporter line)
T2 sequence (Q9NYK1 27-1049): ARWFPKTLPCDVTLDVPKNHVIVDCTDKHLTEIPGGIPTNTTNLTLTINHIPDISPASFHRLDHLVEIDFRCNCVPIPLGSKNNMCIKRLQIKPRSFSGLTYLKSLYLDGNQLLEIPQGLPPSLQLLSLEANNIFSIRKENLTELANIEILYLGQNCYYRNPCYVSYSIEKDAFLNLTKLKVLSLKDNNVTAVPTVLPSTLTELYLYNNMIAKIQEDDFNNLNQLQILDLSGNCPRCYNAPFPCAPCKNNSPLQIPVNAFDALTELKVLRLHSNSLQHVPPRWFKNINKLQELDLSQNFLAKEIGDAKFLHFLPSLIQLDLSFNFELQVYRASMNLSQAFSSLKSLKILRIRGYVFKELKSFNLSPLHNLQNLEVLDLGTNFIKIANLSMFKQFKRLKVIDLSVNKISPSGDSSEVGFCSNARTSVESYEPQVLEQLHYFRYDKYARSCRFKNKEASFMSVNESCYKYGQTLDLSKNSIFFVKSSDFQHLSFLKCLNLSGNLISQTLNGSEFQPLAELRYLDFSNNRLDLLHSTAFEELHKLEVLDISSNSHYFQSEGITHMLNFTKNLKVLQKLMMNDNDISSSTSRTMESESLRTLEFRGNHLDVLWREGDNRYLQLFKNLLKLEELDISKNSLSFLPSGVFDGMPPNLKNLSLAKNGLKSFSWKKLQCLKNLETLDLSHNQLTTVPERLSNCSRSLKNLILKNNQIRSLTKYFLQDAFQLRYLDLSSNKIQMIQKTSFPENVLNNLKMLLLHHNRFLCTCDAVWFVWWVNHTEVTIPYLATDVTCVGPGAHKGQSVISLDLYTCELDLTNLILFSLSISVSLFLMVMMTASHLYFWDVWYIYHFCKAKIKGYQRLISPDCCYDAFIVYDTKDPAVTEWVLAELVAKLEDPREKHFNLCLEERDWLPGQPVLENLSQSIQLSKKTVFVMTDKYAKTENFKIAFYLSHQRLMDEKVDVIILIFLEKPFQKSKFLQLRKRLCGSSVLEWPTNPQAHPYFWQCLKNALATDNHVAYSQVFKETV
Procedure: as §1, §2

| SMILES | IC50 (HEK-Blue-hTLR8 cells) [nM] | IC50 (HEK-Blue-hTLR7 cells) [nM] |
| --- | --- | --- |
| CN1[C@@H]2CC[C@H]1C[C@@H](c1nnc([C@]34CN(c5ccc(C(F)(F)F)c6ncccc56)C[C@@]3(C(F)(F)F)C4)o1)C2 [Compound 78, 2-((1R,3R,5S)-8-methyl-8-azabicyclo[3.2.1]octan-3-yl)-5-((1S,5R)-5-(trifluoromethyl)-3-(8-(trifluoromethyl)quinolin-5-yl)-3-azabicyclo[3.1.0]hexan-1-yl)-1,3,4-oxadiazole] | < 100 | < 100 |
| CN1CCC(c2nnc([C@]34CN(c5ccc(C(F)(F)F)c6nccnc56)C[C@@]3(C(F)(F)F)C4)o2)CC1 [Compound 88, 2-(1-methylpiperidin-4-yl)-5-((1S,5R)-5-(trifluoromethyl)-3-(8-(trifluoromethyl)quinoxalin-5-yl)-3-azabicyclo[3.1.0]hexan-1-yl)-1,3,4-oxadiazole] | < 100 | < 100 |
| CN1CCC(Oc2nnc([C@]34CN(c5ccc(C#N)n6nccc56)C[C@@]3(C(F)(F)F)C4)o2)CC1 [Compound 89, 4-((1S,5R)-1-(5-((1-methylpiperidin-4-yl)oxy)-1,3,4-oxadiazol-2-yl)-5-(trifluoromethyl)-3-azabicyclo[3.1.0]hexan-3-yl)pyrazolo[1,5-a]pyridine-7-carbonitrile] | < 100 | < 100 |
| CN1CC2(CC(c3nnc([C@]45CN(c6ccc(C(F)(F)F)c7ncccc67)C[C@@]4(C(F)(F)F)C5)o3)C2)C1 [Compound 16, 2-(2-methyl-2-azaspiro[3.3]heptan-6-yl)-5-((1S,5R)-5-(trifluoromethyl)-3-(8-(trifluoromethyl)quinolin-5-yl)-3-azabicyclo[3.1.0]hexan-1-yl)-1,3,4-oxadiazole] | < 100 | < 100 |
| CN1CCN(c2nnc([C@]34CN(c5ccc(C#N)n6ncc(F)c56)C[C@@]3(C(F)(F)F)C4)o2)CC1 [Compound 63, 3-fluoro-4-((1S,5R)-1-(5-(4-methylpiperazin-1-yl)-1,3,4-oxadiazol-2-yl)-5-(trifluoromethyl)-3-azabicyclo[3.1.0]hexan-3-yl)pyrazolo[1,5-a]pyridine-7-carbonitrile] | < 100 | < 100 |
